Laboratory results published in a melting point compilation (Tetko et al.).

| melting point [°C] | SMILES |
| --- | --- |
| 143 to 146 | CCOC(=O)c1sc(SC)c(S(=O)(=O)C(C)C)c1N |
| 98 | COC(=O)c1ccc(OCc2ccccc2)cc1 |
| 82 to 83 | Cc1nc(-c2ccccc2)sc1N=C=O |
| 139 to 144 | O=C(C=CC=Cc1ccccc1)C=CC=Cc1ccccc1 |
| 78 | Cc1ccc(C)c(CCC(C)(C)C(=O)O)c1 |
| -26 | CCCCCCCCCCC(C)C |
| 208 to 210 | CC1(C)CC(=O)c2cc(-c3ccccc3)n(-c3ccc(F)cc3)c2C1 |
| 197 to 201 | COc1ccc2[nH]c(C(=O)O)cc2c1 |
| 106 to 108 | CSc1nn(-c2ccccc2)cc1C#N |
| 38 | Cc1cc2c(c(C)c1C)CC2 |
| 230 | CC(=O)OC[C@H]1O[C@@H](O[C@H]2[C@H](OC(C)=O)[C@@H](OC(C)=O)[C@@H](OC(C)=O)O[C@@H]2COC(C)=O)[C@H](OC(C)=O)[C@@H](OC(C)=O)[C@@H]1OC(C)=O |
| 89.5 | Cn1ccccc1=S |
| 55 to 56 | CC12CCC(O)(CC1)CC2=O |
| 29 | COC(=O)c1ccc(C)c(Cl)c1 |
| 212 to 213 | O=C(Nc1nnc(-c2ccc(Cl)cc2)o1)c1ccc(Cl)cc1Cl |
| 72 | CC(=O)C(C#N)c1ccccc1[N+](=O)[O-] (stereo not drawn) |
| 36 | Cc1cc(C)c(Br)c(C)c1N |
| 284 | O=S(=O)(O)CCCN1CCOCC1 |
| 226 | COc1ccccc1-c1nnc2n1NC(c1ccco1)S2 (stereo not drawn) |
| 234 | CC(=O)OC1CC2(O)C(C)C(=O)C3(C(O)CC4C(C)(C)CCC(OC(C)=O)C4(C)C13)C2O (stereo not drawn) |
| 179 to 181 | CC(C)(C)OC(=O)Nc1ccc(C(=O)O)cc1 |
| 98 to 101 | O=C1CCCN1c1ccc(Br)cc1 |
| 156 | CCS(=O)(=O)c1nnc(N(C)C(=O)NC)s1 |

| melting point [°C] | SMILES |
| --- | --- |
| 166 | O=C(O)c1sccc1-n1cccc1 |
| 151 | O=C1CCC2CC1CCC2=O |
| 77.8 | CCCCCCC(O)CCCCCCCCCCC(=O)O (stereo not drawn) |
| 71.5 | C=C(C)c1cc(=O)c(O)ccc1CC=C(C)C |
| 80 | Nc1c(Cl)cc(Cl)cc1I |
| 170 | OCC1OC(O)C(O)C(O)C1O (stereo not drawn) |
| 31.5 | CCCCCCCCCCCC(O)CC (stereo not drawn) |
| 256 to 257 | O=c1c2ccccc2[nH]c(=S)n1Cc1ccccc1 |
| 206 | CC1(C)CC(=O)C(=Cc2ccc(-c3ccc(Cl)cc3)o2)C(=O)C1 |
| 171 | Cc1cc2occc(=O)c2cc1Cl |
| 202 | CC(C)(C)NCC(O)COc1nsnc1N1CCOCC1 (stereo not drawn) |
| 188 to 192 | O=C1NC(CCO)C(=O)NC1CCO (stereo not drawn) |
| 140 to 144 | CCOc1ccc(C(=O)C=CC(=O)O)cc1 |
| 241 to 247 | O=C1OC(=O)C2=C1Cc1ccccc1C2 |
| 91 to 93 | CC(C)(C)OC(=O)N1CCC(c2nc(C=O)cs2)CC1 |
| 78 to 81 | O=C(O)C1CCN(C(=O)OCc2ccccc2)CC1 |
| 72.5 | COC(=O)[C@@H]1CCCN1C(=O)COC(=O)c1ccccc1 |
| 98.5 | CC(=O)NCC1(c2ccccc2)CCN(CCCC(=O)c2ccc(F)cc2)CC1 |
| 196 | COC(=O)NC1C(O)OC(CO)C(O)C1O (stereo not drawn) |
| 77 to 78 | Brc1ccc2occ(Br)c2c1 |
| 39.5 | O=C1OCCO1 |
| 94.5 | CCOC(=O)c1c(Cl)c(Cl)c(Cl)c(Cl)c1C(=O)O |
| 235 | COc1ccc(-c2csc(/C(C#N)=N\Nc3ccc(O)cc3)n2)cc1 |

| melting point [°C] | SMILES |
| --- | --- |
| 265 to 267 | N#CC1=C(C#N)C(=O)C(NCCc2ccccc2)=C(Cl)C1=O |
| 110 to 120 | CC1=NN(c2ccc(Cl)cc2Cl)C(=O)C1C(Cl)C1(Cl)C(=O)N(c2ccc(Cl)cc2Cl)N=C1C (stereo not drawn) |
| 279 | O=C(Nc1ccc(-c2ccc(NC(=O)c3ccccc3)cc2NC(=O)c2ccccc2)c(NC(=O)c2ccccc2)c1)c1ccccc1 |
| 128 | BrC(Br)(Br)c1ccc2ccccc2n1 |
| 226 to 228 | COc1cc(Br)cc2cc(C(=O)O)c(=O)oc12 |
| 160 | Nc1ccc(C2=NN(c3ccccc3)C(=O)C2)cc1 |
| 103 | CC(=O)CCc1oc2c([N+](=O)[O-])cccc2c1-c1ccc(C)o1 |
| 7 | CC1CCCCC1O (stereo not drawn) |
| 118 to 121 | CCOC(=O)[C@H](Cc1ccc(O)cc1)NC(=O)c1ccccc1 |
| 207 to 209 | O=C(O)c1cccc(-c2ccccn2)c1 |
| 62 to 66 | COc1cccc(N2C(=O)C=CC2=O)c1 |
| 170 | Cc1ccc(S(=O)(=O)NC(=O)NN2CCCCCC2)cc1 |
| 332 to 334 | N#CC(C#N)=C(C(=O)Cc1ccccc1)c1ccc([N+](=O)[O-])cc1 |
| 78 | CC(=O)c1sc2ccccc2c1C |
| 96 to 100 | CC(=O)OC[C@H]1O[C@@H](OCc2ccccc2)[C@H](OC(C)=O)[C@@H](OC(C)=O)[C@@H]1OC(C)=O |
| 67 to 69 | Nc1ccc(Cn2cccn2)cc1 |
| 143 | COc1ccc(CNC(=O)c2ccccc2)cc1OCc1ccccc1 |
| 181 | O=Cc1c(F)cc(O)cc1F |
| 101 | Nc1cc(-c2cccs2)n[nH]1 |
| 87 to 90 | CCOC(=O)c1cnc2c(c(C)nn2C)c1Cl |
| 262 | C1=NCC(c2ccc(C3CN=CC=N3)cc2)N=C1 (stereo not drawn) |
| 179 | COc1ccc(-c2ccc(S(=O)(=O)NC(Cc3ccccc3)C(=O)O)cc2)cc1 (stereo not drawn) |
| 130 to 132 | CC(=O)c1cc(-c2ccc(Cl)c(Cl)c2)no1 |

| melting point [°C] | SMILES |
| --- | --- |
| 174 | ClCc1c(Cl)c(Cl)c(CCl)c(Cl)c1Cl |
| 146 | CC(C)c1cc(Oc2ccccc2)cc(C(C)C)c1NC(=S)NC(C)(C)C |
| 123 to 124 | CC(C)(Oc1ccc2ccccc2c1)C(=O)O |
| 243 to 248 | Cc1cc(Sc2ccc(C(=O)O)cc2[N+](=O)[O-])c(C)cc1Cl |
| 2 | CCCCCCCCCCCI |
| -70 | CCCC(C)c1ccccc1 (stereo not drawn) |
| 46.5 | CCc1cc2c(cc1C(C)=O)C(C)(C)CCC2(C)C |
| 53 | O=S(=O)(CF)c1ccccc1 |
| 96 | Cc1ccc(NO)cc1 |
| 206 to 208 | Cc1cc2ncc(S(=O)(=O)C(C)(C)C)c(N)n2n1 |
| 298 to 300 | N#C/C(=C/c1ccc(Cl)cc1Cl)c1nc2ccccc2c(=O)[nH]1 |
| 360 | O=[N+]([O-])c1ccc2c(c1)=NC(=c1ccc(=C3N=c4cc([N+](=O)[O-])ccc4=C3O)cc1)C=2O |
| 138 | CCC(O)(CC)C1(C)CCC(C(=O)O)C(C)(C)O1 (stereo not drawn) |
| 265 to 268 | O=Cc1ccc2c(c1[N+](=O)[O-])C(=O)c1c(Cl)c(Cl)c(Cl)c(Cl)c1C2=O |
| 80 | CCOC(=O)C(=Cc1cc(C=C(C(=O)OCC)C(=O)OCC)cc([N+](=O)[O-])c1)C(=O)OCC |
| 118 | ON=Cc1ccc(Br)cc1 |
| 71 | COC(=O)CCc1cc(CCC(=O)OC)c([N+](=O)[O-])cc1[N+](=O)[O-] |
| 221 to 222 | Cc1cc(C)c(C2(C)CC(C(=NO)c3cc4cc(Br)ccc4o3)C2)c(C)c1 (stereo not drawn) |
| 134 to 138 | OC(Cn1ccnc1)c1ccc(Cl)cc1Cl (stereo not drawn) |
| 118 | CC(CC(=O)O)C(=O)O (stereo not drawn) |
| 214 | O=[N+]([O-])c1ccccc1/C=C/c1ccccn1 |
| 335 to 338 | O=C1CCC(c2ccc(NC(=O)Nc3ccccc3)cc2)=NN1 |
| 120 | CN(C)C(=O)Nc1cc(C(C)(C)C)on1 |

| melting point [°C] | SMILES |
| --- | --- |
| 32 | COC(=O)C1=Cc2ccccc2C1C (stereo not drawn) |
| 138 to 139 | O=[N+]([O-])c1ccc(/C=C\c2ccccc2[N+](=O)[O-])cc1 |
| 180 | Clc1cc(Cl)c2cc(Cl)cc(Cl)c2c1 |
| 120 to 121 | Nc1nsc(SCc2ccccc2)n1 |
| 160 | CC(C=CC=C(C)C=CC1=C(C)CCCC1(C)C)=CC=CC=C(C)C=CC=C(C)C=CC1=C(C)CC(O)CC1(C)C (stereo not drawn) |
| 70 to 71 | OCCN1CCN(c2nccc(C(F)(F)F)n2)CC1 |
| 257 | Cc1cc(O)c2c(c1)C(=O)c1cc(O)cc(O)c1C2=O |
| 105 to 108 | CCOC(=O)C(CCC(=O)O)(CCC(=O)O)C(C)=O |
| 209 | Cc1nc2ccccc2n1CCc1n[nH]c(=S)o1 |
| 38 to 43 | Nc1ccc2c(c1)OCO2 |
| 171 to 172 | CCOC(=O)/C(C#N)=C/c1ccc(O)cc1 |
| 36 to 39 | CCOC(=O)c1sc(-c2ccccc2)nc1C |
| 79 to 83 | CC1=NNC(=O)CC1 |
| 166 to 169 | O=Cc1cccn1-c1ccc([N+](=O)[O-])cc1 |
| 165 | N=c1oc2ccccc2cc1CSN |
| 58 | Cc1ccc2c(ccc3ccccc32)c1 |
| 116 to 117 | COC(=O)c1ccc(N)c(C)c1 |
| 33 to 35 | N#Cc1cc(F)ccc1F |
| 118 | COc1ccc(-c2ccccc2)cc1NC(=O)C(F)(F)C(F)(F)C(F)(F)C(F)(F)C(F)(F)C(F)(F)C(F)(F)C(F)(F)F |

| SMILES | melting point [°C] |
| --- | --- |
| CN1Cc2c(ccc3c2OCO3)C2C(O)Cc3cc4c(cc3C21)OCO4 (stereo not drawn) | 136 |
| N#Cc1ccc([N+](=O)[O-])cc1Cl | 83 to 84 |
| CCOP(=S)(S)OCC | -10 |
| COc1c(Br)cc(Br)cc1Br | 88 |
| Brc1cc2c(cc1Br)Oc1ccccc1O2 | 158 |
| CC12C=CC(=O)C=C1CCC1C2CCC2(C)C(O)CCC12 (stereo not drawn) | 165 |
| CCC(C)(C)c1ccc(O)cc1 | 95 |
| COCCOC(=O)c1ccccc1C(=O)OCCOC | -45 |
| O=P(OC(CCl)CCl)(OC(CCl)CCl)OC(CCl)CCl | 27 |
| Cc1c([N+](=O)[O-])cc(N)cc1[N+](=O)[O-] | 171 |
| CNC(=O)ON=C(C)SC | 78 |
| O=NN1CCc2ccccc21 | 83 |
